Reference: the supplement of paper PMC10307832

How the values were obtained:
Experiment in all cases: relative viability (nuclei count vs DMSO), 5 days (fraction); higher = more cells survive
HCC-15 = system: HCC-15
How it was run: (§1)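 For relative viability, nuclei counts in treated wells were divided by those in vehicle wells. Lung cancer cell lines had been pin-tool dosed in 1536-well plates the day after seeding and cultured for 5 days, then fixed and stained in one step (final 0.05% Triton X-100, 1% formaldehyde, 1 ug/ml Hoechst) and imaged at 4×. Doses were one drug alone or a fixed anchor-drug dose plus five library-drug doses (not always all listed) in √10 steps, and values are duplicate-plate medians.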

NCI-H1993 = system: NCI-H1993
How it was run: as §1

NCI-H358 = system: NCI-H358
How it was run: as §1

COR-L23 = system: COR-L23
How it was run: as §1

HARA = system: HARA
How it was run: as §1

NCI-H1793 = system: NCI-H1793
How it was run: as §1

ABC-1 = system: ABC-1
How it was run: as §1

NCI-H2228 = system: NCI-H2228
How it was run: as §1

HCC-78 = system: HCC-78
How it was run: as §1

NCI-H2405 = system: NCI-H2405
How it was run: as §1

SK-LU-1 = system: SK-LU-1
How it was run: as §1

In the case of `Nc1ccn([C@@H]2O[C@H](CO)[C@@H](O)[C@@H]2O)c(=O)n1` [Cytarabine] + Cc1nc(NC(=O)N2CCC[C@H]2C(N)=O)sc1-c1ccnc(C(C)(C)C(F)(F)F)c1 [Alpelisib] (partner 2 µM), the relative viability (HCC-15; first compound 0.005 µM) is reported as 0.832, the relative viability (HCC-15; first compound 0.01581 µM) is reported as 0.878 and the relative viability (HCC-15; first compound 0.05 µM) is reported as 0.844. The relative viability (HCC-15; first compound 0.1581 µM) was 0.745, the relative viability (HCC-15; first compound 0.5 µM) was 0.546 and the relative viability (NCI-H1993; first compound 0.005 µM) was 0.691. The relative viability (NCI-H1993; first compound 0.01581 µM) was 0.636, the relative viability (NCI-H1993; first compound 0.05 µM) was 0.642 and the relative viability (NCI-H1993; first compound 0.1581 µM) was 0.501. It also gave a relative viability (NCI-H1993; first compound 0.5 µM) of 0.517, a relative viability (NCI-H358; first compound 0.005 µM) of 0.573 and a relative viability (NCI-H358; first compound 0.01581 µM) of 0.516. It also gave a relative viability (NCI-H358; first compound 0.05 µM) of 0.363, a relative viability (NCI-H358; first compound 0.1581 µM) of 0.177 and a relative viability (NCI-H358; first compound 0.5 µM) of 0.148. For the same compound, the relative viability (COR-L23; first compound 0.005 µM) was 0.63, the relative viability (COR-L23; first compound 0.01581 µM) was 0.472 and the relative viability (COR-L23; first compound 0.05 µM) was 0.458. The relative viability (COR-L23; first compound 0.1581 µM) was 0.176, the relative viability (COR-L23; first compound 0.5 µM) was 0.104 and the relative viability (HARA; first compound 0.005 µM) was 0.598. It also gave a relative viability (HARA; first compound 0.01581 µM) of 0.376, a relative viability (HARA; first compound 0.05 µM) of 0.416 and a relative viability (HARA; first compound 0.1581 µM) of 0.167. It also gave a relative viability (HARA; first compound 0.5 µM) of 0.143, a relative viability (NCI-H1793; first compound 0.005 µM) of 0.573 and a relative viability (NCI-H1793; first compound 0.01581 µM) of 0.687. The relative viability (NCI-H1793; first compound 0.05 µM) was 0.691, the relative viability (NCI-H1793; first compound 0.1581 µM) was 0.389 and the relative viability (NCI-H1793; first compound 0.5 µM) was 0.251. The relative viability (ABC-1; first compound 0.005 µM) was 1.02, the relative viability (ABC-1; first compound 0.01581 µM) was 1.4 and the relative viability (ABC-1; first compound 0.05 µM) was 1.09. For the same compound, the relative viability (ABC-1; first compound 0.1581 µM) was 0.738, the relative viability (ABC-1; first compound 0.5 µM) was 0.55 and the relative viability (NCI-H2228; first compound 0.005 µM) was 0.403. The relative viability (NCI-H2228; first compound 0.01581 µM) was 0.201, the relative viability (NCI-H2228; first compound 0.05 µM) was 0.251 and the relative viability (NCI-H2228; first compound 0.1581 µM) was 0.207. The relative viability (NCI-H2228; first compound 0.5 µM) was 0.164, the relative viability (HCC-78; first compound 0.005 µM) was 0.41 and the relative viability (HCC-78; first compound 0.01581 µM) was 0.298. It also gave a relative viability (HCC-78; first compound 0.05 µM) of 0.281, a relative viability (HCC-78; first compound 0.1581 µM) of 0.185 and a relative viability (HCC-78; first compound 0.5 µM) of 0.202. It also gave a relative viability (NCI-H2405; first compound 0.005 µM) of 0.771, a relative viability (NCI-H2405; first compound 0.01581 µM) of 0.657 and a relative viability (NCI-H2405; first compound 0.05 µM) of 0.512. The relative viability (NCI-H2405; first compound 0.1581 µM) was 0.527, the relative viability (NCI-H2405; first compound 0.5 µM) was 0.301 and the relative viability (SK-LU-1; first compound 0.005 µM) was 0.805. The relative viability (SK-LU-1; first compound 0.01581 µM) was 0.826.
